Results from the supplement of paper PMC10307832.

What was measured:
Assay in all cases: relative viability (nuclei count vs DMSO), 5 days (fraction); higher = more cells survive
NCI-H520 = system: NCI-H520
Procedure, shortened: (§1)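 For relative viability, nuclei counts in treated wells were divided by those in vehicle wells. Lung cancer cell lines had been pin-tool dosed in 1536-well plates the day after seeding and cultured for 5 days, then fixed and stained in one step (final 0.05% Triton X-100, 1% formaldehyde, 1 ug/ml Hoechst) and imaged at 4×. Doses were one drug alone or a fixed anchor-drug dose plus five library-drug doses (not always all listed) in √10 steps, and values are duplicate-plate medians.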

NCI-H661 = system: NCI-H661
Procedure, shortened: as §1

NCI-H2342 = system: NCI-H2342
Procedure, shortened: as §1

ChaGo-K-1 = system: ChaGo-K-1
Procedure, shortened: as §1

NCI-H1666 = system: NCI-H1666
Procedure, shortened: as §1

NCI-H2170 = system: NCI-H2170
Procedure, shortened: as §1

HOP-62 = system: HOP-62
Procedure, shortened: as §1

NCI-H838 = system: NCI-H838
Procedure, shortened: as §1

NCI-H1993 = system: NCI-H1993
Procedure, shortened: as §1

CAL-12T = system: CAL-12T
Procedure, shortened: as §1

NCI-H2085 = system: NCI-H2085
Procedure, shortened: as §1

NCI-H1355 = system: NCI-H1355
Procedure, shortened: as §1

NCI-H1734 = system: NCI-H1734
Procedure, shortened: as §1

COR-L23 = system: COR-L23
Procedure, shortened: as §1

RERF-LC-KJ = system: RERF-LC-KJ
Procedure, shortened: as §1

NCI-H1651 = system: NCI-H1651
Procedure, shortened: as §1

NCI-H322M = system: NCI-H322M
Procedure, shortened: as §1

201T = system: 201T
Procedure, shortened: as §1

LC-2-ad = system: LC-2-ad
Procedure, shortened: as §1

NCI-H1944 = system: NCI-H1944
Procedure, shortened: as §1

NCI-H2228 = system: NCI-H2228
Procedure, shortened: as §1

NCI-H1395 = system: NCI-H1395
Procedure, shortened: as §1

SMILES: COCC1(CO)C(=O)C2CCN1CC2 (configuration not stated) [PRIMA-1MET] + Cc1cc(Nc2cc(N3CCN(C)CC3)nc(Sc3ccc(NC(=O)C4CC4)cc3)n2)n[nH]1 [Tozasertib] (partner 0.1 µM)
- relative viability (NCI-H520; first compound 0.2 µM): 0.402
- relative viability (NCI-H520; first compound 0.6325 µM): 0.416
- relative viability (NCI-H520; first compound 6.325 µM): 0.384
- relative viability (NCI-H520; first compound 20 µM): 0.236
- relative viability (NCI-H661; first compound 0.2 µM): 0.369
- relative viability (NCI-H661; first compound 0.6325 µM): 0.354
- relative viability (NCI-H661; first compound 2 µM): 0.357
- relative viability (NCI-H661; first compound 6.325 µM): 0.343
- relative viability (NCI-H661; first compound 20 µM): 0.353
- relative viability (NCI-H2342; first compound 0.2 µM): 0.58
- relative viability (NCI-H2342; first compound 0.6325 µM): 0.684
- relative viability (NCI-H2342; first compound 2 µM): 0.408
- relative viability (NCI-H2342; first compound 6.325 µM): 0.405
- relative viability (NCI-H2342; first compound 20 µM): 0.349
- relative viability (ChaGo-K-1; first compound 0.2 µM): 0.209
- relative viability (ChaGo-K-1; first compound 0.6325 µM): 0.2
- relative viability (ChaGo-K-1; first compound 2 µM): 0.213
- relative viability (ChaGo-K-1; first compound 6.325 µM): 0.224
- relative viability (ChaGo-K-1; first compound 20 µM): 0.207
- relative viability (NCI-H1666; first compound 0.2 µM): 0.592
- relative viability (NCI-H1666; first compound 0.6325 µM): 0.601
- relative viability (NCI-H1666; first compound 2 µM): 0.66
- relative viability (NCI-H1666; first compound 6.325 µM): 0.554
- relative viability (NCI-H1666; first compound 20 µM): 0.388
- relative viability (NCI-H2170; first compound 0.2 µM): 0.9
- relative viability (NCI-H2170; first compound 0.6325 µM): 0.671
- relative viability (NCI-H2170; first compound 2 µM): 0.677
- relative viability (NCI-H2170; first compound 6.325 µM): 0.722
- relative viability (NCI-H2170; first compound 20 µM): 0.678
- relative viability (HOP-62; first compound 0.2 µM): 0.426
- relative viability (HOP-62; first compound 0.6325 µM): 0.341
- relative viability (HOP-62; first compound 2 µM): 0.38
- relative viability (HOP-62; first compound 6.325 µM): 0.383
- relative viability (HOP-62; first compound 20 µM): 0.305
- relative viability (NCI-H838; first compound 0.2 µM): 0.291
- relative viability (NCI-H838; first compound 0.6325 µM): 0.286
- relative viability (NCI-H838; first compound 2 µM): 0.245
- relative viability (NCI-H838; first compound 6.325 µM): 0.293
- relative viability (NCI-H838; first compound 20 µM): 0.194
- relative viability (NCI-H1993; first compound 0.2 µM): 0.674
- relative viability (NCI-H1993; first compound 0.6325 µM): 0.541
- relative viability (NCI-H1993; first compound 2 µM): 0.566
- relative viability (NCI-H1993; first compound 6.325 µM): 0.569
- relative viability (NCI-H1993; first compound 20 µM): 0.662
- relative viability (CAL-12T; first compound 0.2 µM): 0.339
- relative viability (CAL-12T; first compound 0.6325 µM): 0.275
- relative viability (CAL-12T; first compound 2 µM): 0.282
- relative viability (CAL-12T; first compound 6.325 µM): 0.326
- relative viability (CAL-12T; first compound 20 µM): 0.263
- relative viability (NCI-H2085; first compound 0.2 µM): 0.936
- relative viability (NCI-H2085; first compound 0.6325 µM): 0.927
- relative viability (NCI-H2085; first compound 2 µM): 0.84
- relative viability (NCI-H2085; first compound 6.325 µM): 0.828
- relative viability (NCI-H2085; first compound 20 µM): 0.227
- relative viability (NCI-H1355; first compound 0.2 µM): 0.581
- relative viability (NCI-H1355; first compound 0.6325 µM): 0.568
- relative viability (NCI-H1355; first compound 2 µM): 0.564
- relative viability (NCI-H1355; first compound 6.325 µM): 0.629
- relative viability (NCI-H1355; first compound 20 µM): 0.517
- relative viability (NCI-H1734; first compound 0.2 µM): 0.294
- relative viability (NCI-H1734; first compound 0.6325 µM): 0.265
- relative viability (NCI-H1734; first compound 2 µM): 0.233
- relative viability (NCI-H1734; first compound 6.325 µM): 0.181
- relative viability (NCI-H1734; first compound 20 µM): 0.0526
- relative viability (COR-L23; first compound 0.2 µM): 0.223
- relative viability (COR-L23; first compound 0.6325 µM): 0.285
- relative viability (COR-L23; first compound 2 µM): 0.212
- relative viability (COR-L23; first compound 6.325 µM): 0.195
- relative viability (COR-L23; first compound 20 µM): 0.0198
- relative viability (RERF-LC-KJ; first compound 0.2 µM): 0.53
- relative viability (RERF-LC-KJ; first compound 0.6325 µM): 0.523
- relative viability (RERF-LC-KJ; first compound 2 µM): 0.58
- relative viability (RERF-LC-KJ; first compound 6.325 µM): 0.498
- relative viability (RERF-LC-KJ; first compound 20 µM): 0.431
- relative viability (NCI-H1651; first compound 0.2 µM): 0.848
- relative viability (NCI-H1651; first compound 0.6325 µM): 0.66
- relative viability (NCI-H1651; first compound 2 µM): 0.723
- relative viability (NCI-H1651; first compound 6.325 µM): 0.712
- relative viability (NCI-H1651; first compound 20 µM): 0.649
- relative viability (NCI-H322M; first compound 0.2 µM): 0.515
- relative viability (NCI-H322M; first compound 0.6325 µM): 0.523
- relative viability (NCI-H322M; first compound 6.325 µM): 0.504
- relative viability (NCI-H322M; first compound 20 µM): 0.286
- relative viability (201T; first compound 0.2 µM): 1.12
- relative viability (201T; first compound 0.6325 µM): 0.912
- relative viability (201T; first compound 2 µM): 0.899
- relative viability (201T; first compound 6.325 µM): 0.908
- relative viability (201T; first compound 20 µM): 0.905
- relative viability (LC-2-ad; first compound 0.2 µM): 0.422
- relative viability (LC-2-ad; first compound 2 µM): 0.399
- relative viability (LC-2-ad; first compound 6.325 µM): 0.429
- relative viability (LC-2-ad; first compound 20 µM): 0.394
- relative viability (NCI-H1944; first compound 0.2 µM): 0.225
- relative viability (NCI-H1944; first compound 0.6325 µM): 0.242
- relative viability (NCI-H1944; first compound 2 µM): 0.222
- relative viability (NCI-H1944; first compound 6.325 µM): 0.243
- relative viability (NCI-H1944; first compound 20 µM): 0.23
- relative viability (NCI-H2228; first compound 0.2 µM): 0.312
- relative viability (NCI-H2228; first compound 0.6325 µM): 0.262
- relative viability (NCI-H2228; first compound 2 µM): 0.322
- relative viability (NCI-H2228; first compound 6.325 µM): 0.203
- relative viability (NCI-H2228; first compound 20 µM): 0.0992
- relative viability (NCI-H1395; first compound 0.2 µM): 0.823
- relative viability (NCI-H1395; first compound 0.6325 µM): 0.556
- relative viability (NCI-H1395; first compound 2 µM): 0.768
- relative viability (NCI-H1395; first compound 6.325 µM): 0.885
- relative viability (NCI-H1395; first compound 20 µM): 0.518
